Laboratory results published in patent publication US20210260055A1, “TOPICAL FORMULATIONS OF DGAT1 INHIBITORS AND THEIR METHODS OF USE” (Dermavant Sciences GmbH, priority 2018, published 2021).
pIC50: −log10 of the molar value.

Columns and labels:
human sebocyte cell line = assay: Nile Red Neutral Lipid Accumulation Assay; assay type: cell-based; conditions: day 3 of treatment, with 1 μM T0901317 and 1 μM insulin
Procedure: This assay examines the ability of compounds to stimulate or inhibit lipid accumulation in human sebocyte cell line. Cells were seeded in tissue culture treated black clear bottom plates. Compounds were added in the presence of Liver X Receptor (LXR) agonist (T0901317) and 1 μM insulin for 3 days and 5 days. For the 5 day treatment fresh compounds were added at Day 3. After the treatment period nile red dye was added and the relative fluorescence determined for both total and neutral lipids. The neutral/total lipid ratio was calculated and obtained values were normalized to both the Cell Titer Blue viability reagent.
Protocol—Day 1: Human immortalized sebocytes were seeded at 10,000 cells/well in 96-well black, clear bottom plates in Sebocyte Growth Medium and allowed to attach overnight at 37° C. […] 3) The relative fluorescence (RFU) of the incorporated stain was determined under 2 parameters: 540ex/620em with no cutoff (Total Lipid), and 485ex/555em with a 515 cutoff (Neutral Lipid) using bottom reads. […] Cell titer blue reagent (100 was then added to each well and the cells were allowed to incubate for 2 hours at 37° C., 5% CO2. 5) The RFU value was determined at 560ex/590em with a 570 cutoff using a top read.
Data Analysis—Cell viability is presented as cell titer blue fluorescence reading (RFU) for each treatment. […] Minimum and maximum values are determined by UNT and LXR+INS controls. […]

[1] = tested on: Human immortalized sebocytes; assay: 14C-Acetate Sebocyte Lipid Accumulation Assay; assay type: cell-based; conditions: day 2, 16 hour treatment with 1 μM T0901317, then 1 μM insulin for 4 hours
Procedure: This assay examines the ability of compounds to modulate the incorporation of label into de novo lipid synthesis. Cells were seeded in collagen 1-coated Scintiplates. Compounds were added in the presence of Liver X Receptor (LXR) agonist (T0901317) overnight. The medium was replaced with treatments and stimulated with 1 μM insulin for 4 hours in Labeling Medium containing 14C-acetate. Label incorporation was determined by washing the cells to removed excess label and allowing the cell layer to air dry before assessing labeling through Scintiplate counting normalized to Cell Titer Blue viability reagent.
Protocol—Day 1: Human immortalized sebocytes were seeded at 10,000 cells/well in a 96-well white, clear bottom collagen 1-coated Scintiplate in Sebocyte Growth Medium and allowed to attach overnight at 37° C. Day 2: Medium was refreshed by removing seeding medium and adding fresh Sebocyte Growth Medium. […] 3) Plates were read at Ex. 560 Em.590 with a cutoff of 570 nm for CTB signal. […] 5) 14C-acetate labeling was determined by scintillation counting in a MicroBeta TriLux Scintillation Counter.
Data analysis—Cell viability is presented as cell titer blue fluorescence reading (RFU) for each treatment. […] The percent of LXR agonist+Insulin-stimulated lipogenesis was calculated by taking the ratio of each CPM measure over the corresponding cell titer blue measure. […]

Row | pIC50 (human sebocyte cell line; Homo sapiens, 72 h) | pIC50 (human sebocyte cell line) | SMILES | pIC50 ([1]; Homo sapiens) | pIC50 [1]
1 | 7.60 | – | Cc1nc(C)c(-c2ccc([C@H]3CC[C@H](CC(=O)O)CC3)cc2)nc1C(N)=O [DMVT-503, 2-((1R,4R)-4-(4-(6-carbamoyl-3,5-dimethylpyrazin-2-yl)phenyl)cyclohexyl)acetic acid] | 7.30 | –
2 | – | 6.08 | CC1=C(/C=C/C(C)=C/C=C/C(C)=C\C(=O)O)C(C)(C)CCC1 [Mix 13-cis-RA, 13-cis-retinoic Acid, reference compound] | – | 6.48
